Reference: patent US20220402872A1, “PHOTOPOLYMERIZABLE ANTIBACTERIAL MONOMER” (UNIVERSITA' DEGLI STUDI DI TRIESTE, priority 2019, published 2022)

Legend:
Assay type in all cases: cell-based
S. mutans (ATCC 25175) = assay: Determination of the minimum bactericidal concentration (MBC); details: Streptococcus mutans, ATCC25175; against S. Mutans
Experimental: A 20 mg/mL compound stock solution in BHI medium is prepared. In a 96-well plate, the compound solution is diluted serially (the concentration is halved at each step) to obtain the following final concentrations after addition of the bacteria suspension: 10 mg/mL; 5 mg/mL; 2.5 mg/mL; 1.25 mg/mL; 0.625 mg/mL; 0.31 mg/mL; 0.15 mg/mL; 0.08 mg/mL; 0.04 mg/mL; 0.02 mg/mL. Wells containing a mixture of penicillin and streptomycin antibiotics are used as a positive control. Compound-free medium is used as a growth control. A volume of bacterial suspension equal to 0.5*10^6 bacteria/mL is added to each well containing the compound and the controls. The dish is incubated at 37° C. for 24 hours. The lowest compound concentration at which no turbidity of the culture medium is evident is defined as MIC. For the calculation of MBC, aliquots equal to 50 μL are taken from the wells showing evident no turbidity of the medium and are plated on BHI agar plates for 48 hours. […] Bacterial suspensions taken from the positive control (growth medium only) and the negative control (growth medium with Ampicilin 100 μg/mL) are also seeded.
In order to test the antibacterial properties of the compounds prepared in Examples 1-8, on colonies of S. mutans (ATCC 25175), a bacterium commonly found in the human oral cavity, a test was set up to determine the minimum inhibitory concentration (MIC) and the minimum bactericidal concentration (MBC) according to the “Determination of minimum inhibitory concentration (MIC)” methods and “Determination of minimum bactericidal concentration (MBC)” described above.

bacteria grown on agar = assay: Determination of bacterial inhibition - agar diffusion test of primer formulations; details: for zone of inhibition at 5 % strength: 5% by weight of compound; for zone of inhibition at 10 % strength: 10% by weight of compound
Excerpt: A test adapted from a commonly used method for determining the sensitivity of a bacterial strain to antibiotics in solution, known as Kirby-Bauer antibiotic testing or disc diffusion antibiotic sensitivity testing was used (Brown D F, Kothari D (1975), “Comparison of antibiotic discs from different sources”, J. Clin. Pathol. 28 (10): 779-83. Doi: 10.1136 /jcp.28.10.779). The test performed involves the use of discs imbued with a known concentration of the substance under examination that are placed on a layer of bacteria grown on agar. The diffusion of the bactericidal molecule from the disk into the agar causes the inhibition of bacterial growth in the area surrounding the disk itself where the molecule has spread with the formation of what are called zones of growth inhibition. The diameter of these inhibition zones (transparent circular regions in comparison to the bacterial film) is proportional to the antibacterial efficacy of the molecule to its concentration and to its diffusion ability in the medium.
The bactericidal properties of the compounds according to Examples 1, 3, 5, 6 and 7 were tested in various primer-type preparations, using the method “Bacterial inhibition determination-Agar diffusion test” described above. The disk soaked in the tested primer formulation without addition of compounds according to Examples 1, 3, 5, 6 and 7 was used as a negative reference.
For the tests, the following primer-type formulations were used, identified by the following codes: […]

[1] = test system: S. mutans bacterial suspension (ATCC 25175); assay: Direct contact test (DCT) in bonding resin R2
Experimental: The DCT test is based on the turbidimetric determination of bacterial growth in 96-well microplates.
On the wall of each well, 15 μL of the resin to be tested are polymerized for 40 s, using a VALO® Grand LED curing light (Ultradent, Milan, Italy) in standard mode (1000 mW/cm^2, 2 maximum of emission in the ranges of wavelengths 395-415 nm and 440-480 nm);
In this way the side walls of the wells are coated with the polymerized material under test. The wells are then washed with phosphate buffered saline (PBS) before inoculating them with bacteria. Keeping the plate in vertical position, 10 μL of S. mutans bacterial suspension (ATCC 25175) in brain heart infusion medium (BHI) from an o/n culture, is then deposited on the layer of material present on the side walls of the wells. The plate is held upright for 1 hour to allow direct contact between bacteria and the cured material. 200 μL culture broth is then added to each of the wells with gentle mixing. The microplate is then placed in the chamber of a spectrophotometer for ELISA plates reading at 37° C. and the optical density in each well is measured at 600 nm at regular intervals (every 30 minutes for 18 hours). The whole experiment is conducted under aseptic conditions and is repeated on three microplates to ensure reproducibility of the result. 24 wells for each microplate were tested for each sample.
The bactericidal properties of the compounds according to Examples 1, 5, 6 and 7 within a reference bonding resin called R2 were tested using the “Direct contact test (DCT)” method described above. As a negative reference, the reference bonding resin was used without adding compounds according to the invention.
The reference resin called R2 has the following composition (% by weight): • 70% Bis-GMA (bisphenol A glycidyl dimethacrylate, CAS 1565-94-2, Sigma-Aldrich); • 28.75% TEGDMA (triethylene glycol dimethacrylate, CAS 109-16-0, Sigma-Aldrich); • 0.25% CQ (Camphorquinone, CAS 10373-78-1, Sigma-Aldrich); • 1% EDMAD (ethyl-4-dimethylamino benzoate, CAS 10287-53-3, Sigma-Aldrich) and was diluted with 20% by weight of EtOH for use.
For the tests execution, different quantities of the compounds according to examples 1, 5, 6 and 7 were added to the resin R2 in a quantity range from 0.1 to 10% by weight. The homogeneity of the material to be tested was ensured before application in the wells by carrying out a sonication (50%, 5 min) and mixing with Vortex (800 rpm, 5 min) of the various resins added with the compound according to the invention.

[2] = primer L1B, 1% by weight of compound
[3] = primer L3, 1% by weight of compound
[4] = primer PaA, 1% by weight of compound

| Structure (SMILES) | MBC (S. mutans (ATCC 25175)) [µg/mL] | zone of inhibition at 1 % strength (bacteria grown on agar; primer L1A, 1% by weight of compound) [mm] | zone of inhibition at 5 % strength (bacteria grown on agar; primer L1A) [mm] | zone of inhibition at 10 % strength (bacteria grown on agar; primer L1A) [mm] | zone of inhibition at 1 % strength (bacteria grown on agar; [2]) [mm] | zone of inhibition at 5 % strength (bacteria grown on agar; primer L1B) [mm] | zone of inhibition at 10 % strength (bacteria grown on agar; primer L1B) [mm] | zone of inhibition at 1 % strength (bacteria grown on agar; primer L1C, 1% by weight of compound) [mm] | zone of inhibition at 5 % strength (bacteria grown on agar; primer L1C) [mm] | zone of inhibition at 10 % strength (bacteria grown on agar; primer L1C) [mm] | inhibition of bacterial survival by contact (optical density) ([1]; 1% by weight in resin R2) | zone of inhibition at 1 % strength (bacteria grown on agar; [3]) [mm] | zone of inhibition at 1 % strength (bacteria grown on agar; [4]) [mm] | inhibition of bacterial survival by contact (optical density) ([1]; 0.5% by weight in resin R2) |
| --- | --- | --- | --- | --- | --- | --- | --- | --- | --- | --- | --- | --- | --- | --- |
| C=C(C)C(=O)OCC[N+](C)(C)CCCCCCCCCCCC[N+](C)(C)CCOC(=O)C(=C)C.[Br-].[Br-] [Example 1] | 300 | 15 | 20 | 25 | 5 | 15 | 19 | 10 | 15 | 20 | able to inhibit bacterial survival by contact | – | – | – |
| C=C(C)C(=O)OCC[N+](CC)(CC)CCCCCCCCCCCC[N+](CC)(CC)CCOC(=O)C(=C)C.[Br-].[Br-] [Example 5] | 20 | – | – | – | 14 | – | – | – | – | – | able to inhibit bacterial survival by contact | 13 | 12 | – |
| C=C(C)C(=O)Nc1ccc([N+](C)(C)CCCCCCCCCCCC[N+](C)(C)c2ccc(NC(=O)C(C)=O)cc2)cc1.[Br-].[Br-] [Example 6] | 10 | – | – | – | 14 | – | – | – | – | – | – | 15 | 15 | able to inhibit bacterial survival by contact |
| C=C(C)C(=O)NCc1cc[n+](CCCCCCCCCCCC[n+]2ccc(CNC(=O)C(=C)C)cc2)cc1.[Br-].[Br-] [Example 7] | 2.5 | – | – | – | 17 | – | – | – | – | – | able to inhibit bacterial survival by contact | 14 | 13 | – |
